Source: paper PMC4755933 (Journal of medicinal chemistry, 2015)

Columns and labels:
bromodomain of TRIM24 = target: T1, bromodomain of TRIM24 (Homo sapiens, UniProt O15164); assay: AlphaScreen biochemical bromodomain-H3K23; type: binding; details: from TRIM24 IC50
T1 sequence (O15164 899-1004 limits assumed): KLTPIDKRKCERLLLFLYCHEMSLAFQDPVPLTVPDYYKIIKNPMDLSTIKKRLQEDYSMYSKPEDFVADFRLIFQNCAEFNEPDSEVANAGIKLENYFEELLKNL

TRIM24(PHD-bromo) = target: T2, TRIM24(PHD-bromo) (Homo sapiens, UniProt O15164); details: TRIM24 AlphaLisa assay in HeLa cells, in words
T2 sequence (O15164 824-1006 limits assumed): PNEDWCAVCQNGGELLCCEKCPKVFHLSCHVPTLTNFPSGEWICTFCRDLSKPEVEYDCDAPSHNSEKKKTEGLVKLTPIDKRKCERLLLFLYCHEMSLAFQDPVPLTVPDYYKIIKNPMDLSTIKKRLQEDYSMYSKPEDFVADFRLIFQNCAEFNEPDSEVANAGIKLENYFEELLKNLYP

[1] = CACO-2 permeability assay
panel of 32 bromodomains = details: 1 μM concentration

Row | Structure (SMILES) | ligand efficiency (LE) (bromodomain of TRIM24) | further results
1 | Cc1nc(-c2ccc3c(c2)CC(=O)N3C)cs1 [Compound 1] | 0.41 | 
2 | Cn1c(=O)n(C)c2cc(NS(=O)(=O)c3ccc(C4CCCCC4)cc3)ccc21 [Compound 5e, 4-cyclohexyl-N-(1,3-dimethyl-2-oxo-2,3-dihydro-1H-1,3-benzodiazol-5-yl)benzene-1-sulfonamide] | 0.28 | 
3 | COc1ccc(Oc2cc3c(cc2NS(=O)(=O)c2ccccc2)n(C)c(=O)n3C)cc1 [Compound 5g] | 0.26 | 
4 | Cn1cnc(S(=O)(=O)Nc2cc3c(cc2Oc2ccc(OCc4ccccc4)cc2)n(C)c(=O)n3C)c1 [Compound 6, N-{6-[4-(benzyloxy)phenoxy]-1,3-dimethyl-2-oxo-2,3-dihydro-1H-1,3-benzodiazol-5-yl}-1-methyl-1H-imidazole-4-sulfonamide] |  | cellular activity (TRIM24(PHD-bromo)): no cellular activity
5 | COc1ccc(S(=O)(=O)Nc2cc3c(cc2Oc2cccc(OCc4ccccc4)c2)n(C)c(=O)n3C)cc1OC [Compound 7b, N-{6-[3-(benzyloxy)phenoxy]-1,3-dimethyl-2-oxo-2,3-dihydro-1H-1,3-benzodiazol-5-yl}-3,4-dimethoxybenzene-1-sulfonamide] | 0.23 | CACO-2 flux from the apical to basolateral side (Papp) [1]: 21 Papp×10^−6 cm·s^−1
6 | CCCOc1cccc(Oc2cc3c(cc2NS(=O)(=O)c2ccc(OC)c(OC)c2)n(C)c(=O)n3C)c1 [Compound 7e, N-[1,3-dimethyl-2-oxo-6-(3-propoxyphenoxy)-2,3-dihydro-1H-1,3-benzodiazol-5-yl]-3,4-dimethoxybenzene-1-sulfonamide] | 0.27 | 
7 | CC(C)COc1cccc(Oc2ccc3c(c2)n(C)c(=O)n3C)c1 [Compound 7j, 1,3-dimethyl-5-[3-(2-methylpropoxy)phenoxy]-2,3-dihydro-1H-1,3-benzodiazol-2-one] |  | cellular activity (TRIM24(PHD-bromo)): no cellular activity
8 | CCCOc1cc(OCCCCN(C)C)cc(Oc2cc3c(cc2NS(=O)(=O)c2ccc(OC)c(OC)c2)n(C)c(=O)n3C)c1 [Compound 8i, N-(6-{3-[4-(dimethylamino)butoxy]-5-propoxyphenoxy}-1,3-dimethyl-2-oxo-2,3-dihydro-1H-1,3-benzodiazol-5-yl)-3,4-dimethoxybenzene-1-sulfonamide] |  | interactions against 26 other bromodomains (panel of 32 bromodomains): No interactions were detected
